{
  "source": "BindingDB's records for doi:10.1016/j.bioorg.2015.09.004",
  "about": "(Universiti Teknologi Mara, 2015)",
  "data": [
    {"biological_target": "Alpha-glucosidase MAL12 (Saccharomyces cerevisiae (strain ATCC 204508 / S288c), UniProt P53341)", "sequence (P53341 whole entry)": "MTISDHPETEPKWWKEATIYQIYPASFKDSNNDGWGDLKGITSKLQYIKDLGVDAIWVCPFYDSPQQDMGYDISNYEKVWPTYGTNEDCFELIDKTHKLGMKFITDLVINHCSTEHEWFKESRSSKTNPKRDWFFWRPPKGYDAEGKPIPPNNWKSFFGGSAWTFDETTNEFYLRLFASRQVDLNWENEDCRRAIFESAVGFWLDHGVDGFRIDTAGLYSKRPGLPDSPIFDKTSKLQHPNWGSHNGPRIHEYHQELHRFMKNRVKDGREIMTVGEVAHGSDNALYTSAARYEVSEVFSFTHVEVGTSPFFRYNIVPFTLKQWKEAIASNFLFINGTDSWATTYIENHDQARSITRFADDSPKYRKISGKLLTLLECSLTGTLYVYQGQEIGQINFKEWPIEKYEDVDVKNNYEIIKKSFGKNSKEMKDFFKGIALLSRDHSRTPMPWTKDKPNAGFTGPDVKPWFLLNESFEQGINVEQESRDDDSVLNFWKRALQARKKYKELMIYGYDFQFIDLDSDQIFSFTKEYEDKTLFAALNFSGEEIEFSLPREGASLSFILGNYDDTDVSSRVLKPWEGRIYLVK", "assay": "Baker's Yeast alpha-Glucosidase Inhibition Assay", "conditions": "pH 6.8; 37 °C", "description": "The enzyme inhibition was evaluated according to the method previously reported by Taha et al. with slight modification. Various concentration of test compounds (10 uL) were dissolved in DMSO (ranging from 200 to 6.25 ug/mL) and premixed with 95 uL of 50 mM phosphate buffer (pH 6.8). Then, 25 uL of enzyme (0.0625 U/mL) in phosphate buffer saline was added into each well and the plate was incubated at 37 °C for 10 min. Afterward, 25 uL of PNPG in phosphate buffer saline (5 mM) were added and pre-read of the plate was taken by using a microplate reader (Spectrostar Nano BMG Labtech, Germany). The reaction mixture was then incubated at 37 °C for 30 min and change in absorbance at 405 nm was monitored up to 30 min. For negative control, the test samples were replaced with 10 uL of DMSO and acarbose was used as positive control. All experiments were triplicated and the results were expressed as the mean +/- S.E.M of three determinations.", "units": {"IC50": "µM"}, "values": [
      {"smiles": "O=c1oc2ccccc2c(O)c1C(c1ccc(NC(=S)Nc2ccccc2Br)cc1)c1c(O)c2ccccc2oc1=O", "note": "[1-(4-(bis(4-Hydroxy-2-oxo-2H-chromen-3-yl)methyl)phenyl)-3-(2-bromophenyl)-thiourea (1)]", "IC50": 37.4},
      {"smiles": "O=c1oc2ccccc2c(O)c1C(c1ccc(NC(=S)Nc2ccccc2F)cc1)c1c(O)c2ccccc2oc1=O", "note": "[1-(4-(bis(4-Hydroxy-2-oxo-2H-chromen-3-yl)methyl)phenyl)-3-(2-fluorophenyl)-thiourea (7)]", "IC50": 91.3},
      {"smiles": "O=c1oc2ccccc2c(O)c1C(c1ccc(NC(=S)Nc2cccc(Br)c2)cc1)c1c(O)c2ccccc2oc1=O", "note": "[1-(4-(bis(4-Hydroxy-2-oxo-2H-chromen-3-yl)methyl)phenyl)-3-(3-bromophenyl)-thiourea (2)]", "IC50": 35.9},
      {"smiles": "O=c1oc2ccccc2c(O)c1C(c1ccc(NC(=S)Nc2cccc(F)c2)cc1)c1c(O)c2ccccc2oc1=O", "note": "[1-(4-(bis(4-Hydroxy-2-oxo-2H-chromen-3-yl)methyl)phenyl)-3-(3-fluorophenyl)-thiourea (8)]", "IC50": 55.1},
      {"smiles": "O=c1oc2ccccc2c(O)c1C(c1ccc(NC(=S)Nc2cccc([N+](=O)[O-])c2)cc1)c1c(O)c2ccccc2oc1=O", "note": "[1-(4-(bis(4-Hydroxy-2-oxo-2H-chromen-3-yl)methyl)phenyl)-3-(3-nitrophenyl)-thiourea (17)]", "IC50": 51},
      {"smiles": "O=c1oc2ccccc2c(O)c1C(c1ccc(NC(=S)Nc2ccc(Br)cc2)cc1)c1c(O)c2ccccc2oc1=O", "note": "[1-(4-(bis(4-Hydroxy-2-oxo-2H-chromen-3-yl)methyl)phenyl)-3-(4-bromophenyl)-thiourea (3)]", "IC50": 39},
      {"smiles": "O=c1oc2ccccc2c(O)c1C(c1ccc(NC(=S)Nc2ccc(F)cc2)cc1)c1c(O)c2ccccc2oc1=O", "note": "[1-(4-(bis(4-Hydroxy-2-oxo-2H-chromen-3-yl)methyl)phenyl)-3-(4-fluorophenyl)-thiourea (9)]", "IC50": 53.4},
      {"smiles": "O=c1oc2ccccc2c(O)c1C(c1ccc(NC(=S)Nc2ccc([N+](=O)[O-])cc2)cc1)c1c(O)c2ccccc2oc1=O", "note": "[1-(4-(bis(4-Hydroxy-2-oxo-2H-chromen-3-yl)methyl)phenyl)-3-(4-nitrophenyl) thiourea (18)]", "IC50": 24.7}
    ]}
  ]
}
